Measured values published in US20240269304A1, “BCL-XL INHIBITOR ANTIBODY-DRUG CONJUGATES AND METHODS OF USE THEREOF” (Novartis AG, priority 2020, published 2024).
Like-named read-outs stand apart in the source and are kept apart here.

Key:
[1] = ADC stability study: % aggregates by SEC after incubation at 37° C. for 168 h; assay type: physicochemical
Method: Size Exclusion Chromatography: Size exclusion chromatography (SEC) was performed for quality control of each ADCs by measuring monomer percentage of the conjugate. The analysis was performed on analytical column Superdex 200 Increase 5/150 GL (GE Healthcare, 28990945) in isocratic conditions 100% PBS pH7.4 (Sigma Life Science, P3813, 10PAK), flow 0.45 mI/min for 12 minutes. The % aggregate fraction of the conjugate sample was quantified based on the peak area absorbance at 280 nm. Its calculation was based on the ratio between the high molecular weight eluent at 280 nm divided by the sum of peak area absorbance at the same wavelength of the high molecular weight and monomeric eluents multiplied by 100.
Characterization of the exemplary ADCs is summarized in Table 13 (coupling, LC-MS method, OAR, aggregation status, ADO stability and yield). The average OAR values were determined using the above LC-MS methods and the percentage of aggregates was measured by size exclusion chromatography (SEC) during the quality control of the ADO and after the stability study (incubation at 37° C. for 168 h).

H1650 cells = assay: CellTiterGlo (CTG) cell viability, 3D, 120 h, H1650 (Example 8); assay type: cell-based, human
ALL-SIL cells = assay: CellTiterGlo (CTG) cell viability, 72 h, ALL-SIL (Example 8); assay type: cell-based
Method: ALL-SIL cells were cultivated in RPMI supplemented with 20% heat inactivated fetal bovine serum, penicillin (100 IU/ml), streptomycin (100 μg/ml) and L-glutamine (2 mM). Cell lines were cultured at 37° C. in a humidified atmosphere containing 5% CO2. Cells were seeded in 96 well clear bottom plates (96 well clear-bottom, white, Corning reference 3903) and exposed to the payloads or ADCs for 72 h (serially diluted; 9 concentrations each, triplicates). Effects of payloads or ADCs on cell viability were assessed after 3 days of incubation at 37° C./5% CO2 by quantification of cellular ATP levels using CellTiterGlo at 75 μL reagent/well. All the conditions were tested in triplicates. Luminescence was quantified on a multipurpose plate reader. IC50s were calculated using standard four-parametric curve fitting. […] Each experiment was performed at least twice, with results being reproducible.

DND-41 cells = assay: CellTiterGlo (CTG) cell viability, 72 h, DND-41 (Example 8); assay type: cell-based
Method: DND-41 cells were cultivated in RPMI supplemented with 10% heat inactivated fetal bovine serum, penicillin (100 IU/ml), streptomycin (100 μg/ml) and L-glutamine (2 mM). Cell lines were cultured at 37° C. in a humidified atmosphere containing 5% CO2. […] Effects of payloads or ADCs on cell viability were assessed after 3 days of incubation at 37° C./5% CO2 by quantification of cellular ATP levels using CellTiterGlo at 75 μL reagent/well. All the conditions were tested in triplicates. Luminescence was quantified on a multipurpose plate reader. IC50s were calculated using standard four-parametric curve fitting.

ALL-SILL (T-ALL) = assay: CellTiter-Glo viability 72 h, single agent or 1/1 combination, ALL-SIL (Example 9); assay type: cell-based; conditions: single agent or 1/1 combination as labelled
Method: Cell lines were cultured in the media described above at 37° C. in a humidified atmosphere containing 5% CO2. […] Effects of payloads or ADCs on cell viability were assessed after 3 days of incubation at 37° C./5% CO2 by quantification of cellular ATP levels using CellTiter-Glo reagent (Promega Ref: G7571) at 75 μL reagent/well. All the conditions were tested in triplicates. Luminescence was quantified on a multipurpose plate reader. IC50s were calculated using standard four-parametric curve fitting.

[2] = experiment n1, read-out: ALLSIL CTG 72 h IC50 nM n1
[3] = experiment n2, read-out: ALLSIL CTG 72 h IC50 nM n2
[4] = mean of n1 and n2, read-out: ALLSIL CTG 72 h IC50 nM Mean of n1 and n2
[5] = experiment n1, read-out: DND41 CTG 72 h IC50 nM n1
[6] = experiment n2, read-out: DND41 CTG 72 h IC50 nM n2
[7] = mean of n1 and n2, read-out: DND41 CTG 72 h IC50 nM Mean of n1 and n2
[8] = n1, read-out: ALL-SILL (T-ALL) IC50 n1
[9] = n2, read-out: ALL-SILL (T-ALL) IC50 n2

Row | Compound | Stab w1 +37° C. % Agg (by SEC) [1] [%] | IC50 (H1650 cells; H1650 3D, experiment n1, read-out: H1650 3D CTG IC50 n1) [nM] | IC50 (H1650 cells; H1650 3D, experiment n2, read-out: H1650 3D CTG IC50 n2) [nM] | IC50 (H1650 cells; H1650 3D, mean of n1 and n2, read-out: H1650 3D CTG IC50 Mean of n1 and n2) [nM] | IC50 (ALL-SIL cells; [2]) [nM] | IC50 (ALL-SIL cells; [3]) [nM] | IC50 (ALL-SIL cells; [4]) [nM] | IC50 (DND-41 cells; [5]) [nM] | IC50 (DND-41 cells; [6]) [nM] | IC50 (DND-41 cells; [7]) [nM] | IC50 (H1650 cells; Homo sapiens, NCI-H1650, H1650 3D, experiment n1, read-out: H1650 3D CTG IC50 n1) [nM] | IC50 (H1650 cells; Homo sapiens, NCI-H1650, H1650 3D, experiment n2, read-out: H1650 3D CTG IC50 n2) [nM] | IC50 (H1650 cells; Homo sapiens, NCI-H1650, H1650 3D, mean of n1 and n2, read-out: H1650 3D CTG IC50 Mean of n1 and n2) [nM] | IC50 (ALL-SILL (T-ALL); mean, read-out: ALL-SILL (T-ALL) IC50 mean) [nM] | IC50 (ALL-SILL (T-ALL); [8]) [nM] | IC50 (ALL-SILL (T-ALL); [9]) [nM]
1 | Cc1cc(N(C)c2nc(C(=O)O)c(CCCOc3ccc(C#CCN(C)C(=O)OCc4ccc(NC(=O)[C@H](C)NC(=O)[C@@H](NC(=O)CCOCCN5C(=O)CC(C)C5=O)C(C)C)cc4CC[C@@H]4O[C@H](C(=O)O)[C@@H](O)[C@H](O)[C@H]4O)cc3F)s2)nnc1Nc1nc2ccccc2s1 (some centres unmarked) [Ab C -L106C-P7] | 29 | 1.8 | 1.5 | 1.65 | – | – | – | – | – | – | – | – | – | – | – | –
2 | CC(=O)C1=C(CCCOc2ccc(C#CCC(C)(C)Cc3ccc(NC(=O)[C@H](CCCNC(N)=O)NC(=O)[C@@H](NC(=O)CCOCCN4C(=O)CC(C)C4=O)C(C)C)cc3)cc2C)CC(C2CCCC3C2=NN=C(NC2=Nc4ccccc4C2)C3C)=C1 (some centres unmarked) [Ab D - L9A-P1] | 8 | – | – | – | 0.025 | 0.037 | 0.031 | 0.16 | 0.14 | 0.15 | – | – | – | – | – | –
3 | Cc1c(Nc2nc3ccccc3s2)nnc2c1CCCN2c1nc(C(=O)O)c(CCCOc2ccc(C#CCN3CCN(C(=O)OCc4ccc(NC(=O)[C@H](CCCNC(N)=O)NC(=O)[C@@H](NC(=O)CCOCCN5C(=O)CC(C)C5=O)C(C)C)cc4)CC3)cc2F)s1 (some centres unmarked) [Ab D - L9C-P17] | 6 | – | – | – | 0.006 | 0.01 | 0.008 | 2.1 | 0.38 | 1.24 | – | – | – | – | – | –
4 | Cc1cc(N(CCCO)C2=NC(C(=O)O)=C(CCCOc3ccc(C#CCN(C)C(=O)OCc4ccc(NC(=O)[C@](C)(CCCNC(N)=O)NC(=O)[C@@H](NC(=O)CCOCCN5C(=O)CC(C)C5=O)C(C)C)cc4)cc3F)C2)nnc1Nc1nc2ccccc2s1 (some centres unmarked) [Ab D - L9C-P45] | 2 | – | – | – | 0.36 | 0.38 | 0.37 | > 100 | > 100 | > 100 | – | – | – | – | – | –
5 | Cc1cc(N(CCCC(O)CO)C2=NC(C(=O)O)=C(CCCOc3ccc(C#CCN(C)C(=O)OCc4ccc(NC(=O)[C@H](CCCNC(N)=O)NC(=O)[C@@H](NC(=O)CCOCCN5C(=O)CC(C)C5=O)C(C)C)cc4)cc3F)C2)nnc1Nc1nc2ccccc2s1 (some centres unmarked) [Ab D - L9C-P46] | 6 | – | – | – | 0.18 | 0.2 | 0.19 | > 100 | > 100 | > 100 | – | – | – | – | – | –
6 | C=C(C)CCCC[C@](C)(NC(=O)[C@@](C)(NC(=O)CCOCCN1C(=O)CC(C)C1=O)C(C)C)C(=O)Nc1ccc(CC(C)(C)CC#Cc2ccc(OCCCC3=C(C(C)=O)N=C(N4CCCc5c4nnc(Oc4nc6ccccc6o4)c5C)C3)c(C)c2)c(S(=O)(=O)O)c1 (some centres unmarked) [Ab D - L27A-P1] | 9 | – | – | – | 0.028 | 0.018 | 0.023 | 0.21 | 0.28 | 0.245 | – | – | – | – | – | –
7 | Cc1c(Nc2nc3ccccc3s2)nnc2c1CCCN2c1ccc(-c2cnn(C[C@]34C[C@]5(C)C[C@](C)(C3)C[C@@](OCCN3CCCCCC3)(C5)C4)c2C)c(C(=O)O)n1 [P33, 3-[1-[[3-[2-(azepan-1-yl)ethoxy]-5,7-dimethyl-1-adamantyl]methyl]-5-methyl-pyrazol-4-yl]-6-[3-(1,3-benzothiazol-2-ylamino)-4-methyl-6,7-dihydro-5H-pyrido[2,3-c]pyridazin-8-yl]pyridine-2-carboxylic acid] | – | – | – | – | – | – | – | – | – | – | 0.89 | 0.57 | 0.73 | 0.145 | 0.1 | 0.19
8 | Cc1c(Nc2nc3ccccc3s2)nnc2c1CCCN2c1ccc(-c2cnn(CC34CC5(C)CC(C)(CC(CCCNCCCO)(C5)C3)C4)c2C)c(C(=O)O)n1 [P40, 6-[3-(1,3-benzothiazol-2-ylamino)-4-methyl-6,7-dihydro-5H-pyrido[2,3-c]pyridazin-8-yl]-3-[1-[[3-[3-(3-hydroxypropylamino)propyl]-5,7-dimethyl-1-adamantyl]methyl]-5-methyl-pyrazol-4-yl]pyridine-2-carboxylic acid] | – | – | – | – | – | – | – | – | – | – | – | – | – | – | 1.06 | 1.26
